From patent US8449898B2 (priority 2007, dated 2013) come the findings set out here.

SMILES strings stand for the structures. Read-outs that look alike come from different tables or passages of the source.

Test [1] deals with Phytophthora infestans (the causal agent of tomato late blight). Nature of the test: whole plant or invertebrate. It is filed as in vivo. The conditions noted are these: for TLB Obsd: component (b) alone; for TLB Obsd (disease control rating): Table B.
For test [2], the system named is Pseudoperonospora cubensis (the causal agent of cucumber downy mildew). Briefly: Test B: cucumber downy mildew, preventive spray on cucumber seedlings. Format: in vivo.
Where [3] appears, read: Phytophthora infestans, read-out: TLB Obsd (observed effect, tomato late blight), component (b) alone, 2 ppm.
The mark [4] stands for this setting: Phytophthora infestans, read-out: TLB Obsd (observed effect, tomato late blight), component (b) alone, 10 ppm.
Setting [5] is: Phytophthora infestans, read-out: TLB Obsd (observed effect, tomato late blight), component (b) alone, 40 ppm.
The mark [6] stands for this setting: Pseudoperonospora cubensis, component (b) alone 0.08 ppm (Compound 1 0 ppm), read-out: CDM Obsd.
The mark [7] stands for this setting: Pseudoperonospora cubensis, component (b) alone 0.4 ppm (Compound 1 0 ppm), read-out: CDM Obsd.
Setting [8] is: Pseudoperonospora cubensis, component (b) alone 2 ppm (Compound 1 0 ppm), read-out: CDM Obsd.
Where [9] appears, read: Pseudoperonospora cubensis, component (b) alone 10 ppm (Compound 1 0 ppm), read-out: CDM Obsd.
The mark [10] stands for this setting: Pseudoperonospora cubensis, component (b) alone 40 ppm (Compound 1 0 ppm), read-out: CDM Obsd.
The mark [11] stands for this setting: Pseudoperonospora cubensis, component (b) alone, 2 ppm, read-out: CDM Obsd (observed effect, cucumber downy mildew).
Where [12] appears, read: Pseudoperonospora cubensis, component (b) alone, 10 ppm, read-out: CDM Obsd (observed effect, cucumber downy mildew).
[13] abbreviates: Pseudoperonospora cubensis, component (b) alone, 40 ppm, read-out: CDM Obsd (observed effect, cucumber downy mildew).
Setting [14] is: component (b) alone 0.08 ppm (Compound 1 0 ppm).
[15] abbreviates: component (b) alone 0.4 ppm (Compound 1 0 ppm).
Where [16] appears, read: component (b) alone 2 ppm (Compound 1 0 ppm).
[17] abbreviates: component (b) alone 10 ppm (Compound 1 0 ppm).

As to `COc1ccc(C(=CC(=O)N2CCOCC2)c2ccc(Cl)cc2)cc1OC` [dimethomorph], the pest or weed control at 0.08 ppm was determined as 9% in test [1] (Phytophthora infestans, read-out: TLB Obsd (disease control rating), Table B, component (b) alone 0.08 ppm); 31% in test [1] (Phytophthora infestans, read-out: TLB Obsd (observed effect, tomato late blight), component (b) alone, 0.08 ppm); 47% in test [2] (Pseudoperonospora cubensis, Table B, component (b) alone 0.08 ppm, read-out: CDM Obsd (disease control rating)); 52% in test [2] (Pseudoperonospora cubensis, component (b) alone, 0.08 ppm, read-out: CDM Obsd (observed effect, cucumber downy mildew)). Moreover, the pest or weed control at 0.4 ppm is 9% in test [1] (Phytophthora infestans, read-out: TLB Obsd (disease control rating), Table B, component (b) alone 0.4 ppm); 62% in test [1] (Phytophthora infestans, read-out: TLB Obsd (observed effect, tomato late blight), component (b) alone, 0.4 ppm); 57% in test [2] (Pseudoperonospora cubensis, Table B, component (b) alone 0.4 ppm, read-out: CDM Obsd (disease control rating)); 54% in test [2] (Pseudoperonospora cubensis, component (b) alone, 0.4 ppm, read-out: CDM Obsd (observed effect, cucumber downy mildew)). Besides, the pest or weed control at 2 ppm amounted to 47% in test [1] (Phytophthora infestans, read-out: TLB Obsd (disease control rating), Table B, component (b) alone 2 ppm); 95% in test [1] (setting [3]); 70% in test [2] (Pseudoperonospora cubensis, Table B, component (b) alone 2 ppm, read-out: CDM Obsd (disease control rating)); 88% in test [2] (setting [11]). In addition, the pest or weed control at 10 ppm in test [1] (Phytophthora infestans, read-out: TLB Obsd (disease control rating), Table B, component (b) alone 10 ppm) stood at 86%; in test [1] (setting [4]) it was 88%; in test [2] (Pseudoperonospora cubensis, Table B, component (b) alone 10 ppm, read-out: CDM Obsd (disease control rating)), 100%; in test [2] (setting [12]), 100%. The pest or weed control at 40 ppm turned out to be 99% in test [1] (Phytophthora infestans, read-out: TLB Obsd (disease control rating), Table B, component (b) alone 40 ppm); 100% in test [1] (setting [5]); 100% in test [2] (Pseudoperonospora cubensis, Table B, component (b) alone 40 ppm, read-out: CDM Obsd (disease control rating)); 100% in test [2] (setting [13]). In addition, in test [2] (setting [6]), the pest or weed control at 0.08 µg/mL was found to be 26%. In addition, the pest or weed control at 0.4 µg/mL in test [2] (setting [7]) turned out to be 26%. The pest or weed control at 2 µg/mL in test [2] (setting [8]) came to 83%. Moreover, the pest or weed control at 10 µg/mL in test [2] (setting [9]) was determined as 100%. Further, the pest or weed control at 40 µg/mL in test [2] (setting [10]) is 100%.

With `CCNc1nc(CC)c(C(=O)NC(C#N)c2cccs2)s1` (stereo not drawn) [ethaboxam], the “TLB Obsd” value in test [1] (0.016 ppm) was 22%; in test [1] (0.08 ppm), 15%; in test [1] (0.4 ppm), 95%; in test [1] (2 ppm), 87%; in test [1] (10 ppm), 100%. The “CDM Obsd” value in test [2] (component (b) alone 0.016 ppm (Compound 1 0 ppm)) is 47%; in test [2] (setting [14]), 47%; in test [2] (setting [15]) it was 47%; in test [2] (setting [16]) it was 82%; in test [2] (setting [17]), 100%; in test [2] (component (b) alone, 0.016 ppm), 0%. The “CDM Obsd” value was determined as 0% in test [2] (component (b) alone, 0.08 ppm); 41% in test [2] (component (b) alone, 0.4 ppm); 100% in test [2] (component (b) alone, 2 ppm); 100% in test [2] (component (b) alone, 10 ppm).

Regarding `CSC1=N[C@@](C)(c2ccccc2)C(=O)N1Nc1ccccc1` [fenamidone], the pest or weed control at 0.08 ppm in test [1] (Phytophthora infestans, read-out: TLB Obsd, component (b) alone, 0.08 ppm) is 22%; in test [2] (Pseudoperonospora cubensis, component (b) alone, 0.08 ppm, read-out: CDM Obsd), 0%. For the same compound, the pest or weed control at 0.4 ppm in test [1] (Phytophthora infestans, read-out: TLB Obsd, component (b) alone, 0.4 ppm) worked out at 30%; in test [2] (Pseudoperonospora cubensis, component (b) alone, 0.4 ppm, read-out: CDM Obsd) it was 0%. The pest or weed control at 2 ppm in test [1] (Phytophthora infestans, read-out: TLB Obsd, component (b) alone, 2 ppm) was 99%; in test [2] (Pseudoperonospora cubensis, component (b) alone, 2 ppm, read-out: CDM Obsd), 85%. The pest or weed control at 10 ppm is 100% in test [1] (Phytophthora infestans, read-out: TLB Obsd, component (b) alone, 10 ppm) and 100% in test [2] (Pseudoperonospora cubensis, component (b) alone, 10 ppm, read-out: CDM Obsd). The pest or weed control at 40 ppm in test [1] (Phytophthora infestans, read-out: TLB Obsd, component (b) alone, 40 ppm) turned out to be 100%; in test [2] (Pseudoperonospora cubensis, component (b) alone, 40 ppm, read-out: CDM Obsd) it was 100%. The pest or weed control at 0.08 µg/mL in test [2] (setting [6]) was determined as 65%. The pest or weed control at 0.4 µg/mL in test [2] (setting [7]) came out at 47%. Besides, in test [2] (setting [8]), the pest or weed control at 2 µg/mL is 82%. The pest or weed control at 10 µg/mL in test [2] (setting [9]) amounted to 100%. Also, the pest or weed control at 40 µg/mL in test [2] (setting [10]) was found to be 100%.

Regarding `O=[N+]([O-])c1cc(C(F)(F)F)c(Cl)c([N+](=O)[O-])c1Nc1ncc(C(F)(F)F)cc1Cl` [fluazinam], the pest or weed control at 0.4 ppm came out at 17% in test [1] (Phytophthora infestans, read-out: TLB Obsd (disease control rating), Table C, component (b) alone 0.4 ppm) and 57% in test [2] (Pseudoperonospora cubensis, Table C, component (b) alone 0.4 ppm, read-out: CDM Obsd (disease control rating)). For the same compound, the pest or weed control at 2 ppm in test [1] (Phytophthora infestans, read-out: TLB Obsd (disease control rating), Table C, component (b) alone 2 ppm) came out at 40%; in test [1] (setting [3]), 71%; in test [2] (Pseudoperonospora cubensis, Table C, component (b) alone 2 ppm, read-out: CDM Obsd (disease control rating)) it was 60%; in test [2] (setting [11]), 89%. For the same compound, the pest or weed control at 10 ppm came to 80% in test [1] (Phytophthora infestans, read-out: TLB Obsd (disease control rating), Table C, component (b) alone 10 ppm); 99% in test [1] (setting [4]); 91% in test [2] (Pseudoperonospora cubensis, Table C, component (b) alone 10 ppm, read-out: CDM Obsd (disease control rating)); 98% in test [2] (setting [12]). For the same compound, the pest or weed control at 40 ppm in test [1] (Phytophthora infestans, read-out: TLB Obsd (disease control rating), Table C, component (b) alone 40 ppm) was found to be 98%; in test [1] (setting [5]), 99%; in test [2] (Pseudoperonospora cubensis, Table C, component (b) alone 40 ppm, read-out: CDM Obsd (disease control rating)), 100%; in test [2] (setting [13]), 100%. The pest or weed control at 200 ppm was 100% in test [1] (Phytophthora infestans, read-out: TLB Obsd (disease control rating), Table C, component (b) alone 200 ppm); 100% in test [1] (Phytophthora infestans, read-out: TLB Obsd (observed effect, tomato late blight), component (b) alone, 200 ppm); 100% in test [2] (Pseudoperonospora cubensis, Table C, component (b) alone 200 ppm, read-out: CDM Obsd (disease control rating)); 100% in test [2] (Pseudoperonospora cubensis, component (b) alone, 200 ppm, read-out: CDM Obsd (observed effect, cucumber downy mildew)). Further, the pest or weed control at 0.04 ppm was 23% in test [1] (Phytophthora infestans, read-out: TLB Obsd (observed effect, tomato late blight), component (b) alone, 0.04 ppm) and 56% in test [2] (Pseudoperonospora cubensis, component (b) alone, 0.04 ppm, read-out: CDM Obsd (observed effect, cucumber downy mildew)). The pest or weed control at 0.4 µg/mL in test [2] (setting [7]) was found to be 47%. Moreover, the pest or weed control at 2 µg/mL in test [2] (setting [8]) is 57%. The pest or weed control at 10 µg/mL in test [2] (setting [9]) came out at 92%. Besides, the pest or weed control at 40 µg/mL in test [2] (setting [10]) came to 100%. Also, in test [2] (Pseudoperonospora cubensis, component (b) alone 200 ppm (Compound 1 0 ppm), read-out: CDM Obsd), the pest or weed control at 200 µg/mL turned out to be 100%.

As for `O=C(NCc1ncc(C(F)(F)F)cc1Cl)c1c(Cl)cccc1Cl` [fluopicolide], the “TLB Obsd (disease control rating)” value in test [1] (component (b) alone 0.08 ppm) is 26%; in test [1] (component (b) alone 0.4 ppm), 9%; in test [1] (component (b) alone 2 ppm), 59%; in test [1] (component (b) alone 10 ppm) it was 100%; in test [1] (component (b) alone 40 ppm), 100%. The “TLB Obsd” value in test [1] (0.08 ppm) worked out at 7%; in test [1] (0.4 ppm), 0%; in test [1] (2 ppm) it was 90%; in test [1] (10 ppm), 100%; in test [1] (40 ppm) it was 100%. In addition, the “CDM Obsd (disease control rating)” value in test [2] (Table B, component (b) alone 0.08 ppm) is on record as 47%; in test [2] (Table B, component (b) alone 0.4 ppm), 47%; in test [2] (Table B, component (b) alone 2 ppm) it was 94%; in test [2] (Table B, component (b) alone 10 ppm), 100%; in test [2] (Table B, component (b) alone 40 ppm) it was 100%. For the same compound, the “CDM Obsd” value in test [2] (setting [14]) is listed as 33%; in test [2] (setting [15]), 79%; in test [2] (setting [16]) it was 96%; in test [2] (setting [17]), 100%; in test [2] (component (b) alone 40 ppm (Compound 1 0 ppm)), 100%; in test [2] (component (b) alone, 0.08 ppm), 0%. The “CDM Obsd” value is recorded as 0% in test [2] (component (b) alone, 0.4 ppm); 83% in test [2] (component (b) alone, 2 ppm); 100% in test [2] (component (b) alone, 10 ppm); 100% in test [2] (component (b) alone, 40 ppm).
